Literature values in patent publication US5047425A, “Amine derivatives having cardiovascular activity” (Simes Societa Italiana Medicinali & Sintetici SpA, priority 1987, dated 1991).

Settings: literature: McKenna 1966; Whitsitt 1967; cited from earlier work

## CC(C)NCC(O)COc1cccc2ccccc12 (centres unmarked) [Propranolol]
  cardiac output: depresses at the same time the cardiac output
  coronary flow: depresses at the same time the cardiac output and the coronary flow
